Experimental data taken from US8586632B2, “Use of the irritating principal oleocanthal in olive oil, as well as structurally and functionally similar compounds” (Monell Chemical Senses Center, priority 2007, dated 2013).

Key:
[1] = test system: cultured rat trigeminal neurons; experiment: Intracellular calcium level in cultured rat trigeminal neurons (ratiometric Fura2 imaging); assay type: cell-based; design: key to TG Neuron Activation: The highest scale (+++) was assigned to the analogs that had approximately the same magnitude of response and excited the same number of neurons as oleocanthal; ++ responses were assigned to analogs that elicited intermediate responses to an intermediated number of cells; The + responses were weak but detectable and were observed in very few cells; No detectable response is indicated by 0; conditions: for TG Neuron Activation: single concentration 5 micromolar, response relative to oleocanthal; for intracellular calcium response in trigeminal neurons (in words): cultured rat trigeminal neurons; for number of trigeminal neurons responding, as % of the response to oleocanthal: 5 micromolar oleocanthal = 100%
Procedure: Activity of synthetic oleocanthal analogs was assessed by measurement of the intracellular calcium level in cultured rat trigeminal neurons. Flavor or taste perception is made up of the sensory experience of three chemical senses: taste, smell, and chemical-induced irritation or pain. This third component is mainly determined by the impact of chemical stimuli that are transmitted to the brain via the trigeminal nerve.
Trigeminal ganglia were harvested from 1-3 day old Sprague-Dawley rat pups. Neurons were dissociated in Hanks Buffered Saline Solution (HBSS) with trypsin (0.0625%) for 15 minutes, collagenase (1 mg/ml) and DNase (0.1 mg/ml) for 45 minutes, and then were separated from myelin/debris using a 15/30/60% Percoll gradient. The neurons were plated on poly-1-lysine/laminin-coated coverslips in modified neurobasal medium supplemented with B27, 100 ng/ml Nerve Growth Factor (NGF) and kept at 37° C., 5% CO2. […] Intracellular calcium was measured ratiometrically using excitation at 340 and 380 nm and emission at 510 nm. Experiments were performed at 31-32° C. Neurons were stimulated by compounds in Ringers solution (pH=7.34) that flowed over the neurons for 15 sec.
Synthetic (−)oleocanthal and related analogs were dissolved in absolute ethanol and then added to Ringer's solution adjusted at pH=7.34 with a final ethanol concentration of less than 0.1%. The octanol-water partition coefficient (Log P), expressing compound lipophilicity, was calculated based on chemical structure with the Interactive Analysis Log P predictor website. In general, the higher the log P number, the greater the lipophilicity, and the greater the tendency of the compound to partition into the lipid phase of the cell membranes.
Oleocanthal activates rat trigeminal neurons; 5 microM of the olive oil irritant elicits a robust intracellular calcium increase in about 25 to about 35% of cultured rat trigeminal neurons (FIG. 6). Therefore, to assess the irritation potency of oleocanthal analogs and in order to avoid human consumption of unnatural compounds, activity was determined by measurement of the intracellular calcium level in cultured rat trigeminal neurons. […] Thus, both aldehyde groups, as well as unsaturation, are required to maintain full activity. […] Analog 11 is of particular interest. Like oleocanthal, analog 11 (or 4-DHPEA-EDA) is a secoiridoid derivative naturally present in extra virgin olive oil. Oleocanthal and 4-DHPEA-EDA formation occurs during olive oil production by enzymatic and chemical degradation of their respective precursors ligstroside and oleuropein, two glucosylated secoiridoids abundantly synthesized in unripe olives (FIG. 9). Oleocanthal and 4-DHPEA-EDA are structurally very similar—the sole difference being a second phenolic hydroxyl group in 4-DHPEA-EDA. […] For the experiment illustrated in FIG. 8, analog 13 (5, 10, 20 and 50 micomolar) was applied on a separate coverslip containing trigeminal neurons and activation was determined. This was followed by application of 5 micromolar oleocanthal to the same four coverslips. For each coverslip, the number of trigeminal neurons responding to oleocanthal was determined and defined as 100%. The number of trigeminal neurons responding to analog 13 corresponded to approximately 6% (5 micromolar analog 13), 25% (10 micromolar analog 13), 45% (20 micromolar analog 13) and 96% (50 micromolar analog 13) of the response to oleocanthal. For each coverslip, 18-20 trigeminal neurons were sensitive to oleocanthal. […] Analog 13 is very close in structure to oleocanthal (Table 2), lacking only a single carbon. […] While not wishing to be bound by any one theory, it is believed that the shorter chain of analog 13 pulls the rigid ring forward creating a steric obstruction to efficacious binding with the receptor.

throat = experiment: Throat irritation sensory test of synthetic oleocanthal in corn oil (two-alternative forced-choice); assay type: in vivo, human; conditions: for correct trials, 2AFC throat irritation: ten subjects
Procedure: Testing was double-blind and each was exposed to three sets of two samples, one of which was added synthesized oleocanthal and the other served as the blank control. The task was to indicated which of the pair was more irritating. […] Importantly, the effect was dose dependent (FIG. 2 open triangles, dashed line). Ten subjects were tested with non-irritating commercial corn oils presented neat and mixed with either synthesized (−)-oleocanthal or the bitter agent sucrose octaacetate (SOA) (Sigma-Aldrich). […] (−)-Oleocanthal was tested at the highest concentration identified in the ten rated oils, 200 μg/ml, and at one half and whole log steps more dilute 63.25 and 20 μg/ml. SOA was added to the corn oil (4×10^−4, 1×10^−4, 5×10^−5 M) to intensity match the irritation of the three levels of (−)-oleocanthal. Subjects participated in two-alternative forced-choice (2AFC) trials (four trials at every concentration for each subject) and in intensity ratings sessions (four ratings per each oil). For the 2AFC trials subjects were presented with two 3.0 ml corn oil samples with matching intensities of SOA and (−)-oleocanthal in ascending order, and were required to sample oils as described above. While blind to stimulus position, subjects were asked two questions on each trial, “Which of the two oils was more irritating in the throat?” and “Which one was more bitter?” At the 20 μg/ml & 5×10^−5 M level most subjects reported on some trials that the same oil was both the more irritating and the more bitter of the two. […] Subjects performed at chance when selecting among two unadulterated corn oils, when the correct choice was randomly assigned prior to testing. […] The other two concentrations were correct 39/40 and 40/40 trials. For the intensity rating trials subjects were presented with all eight oils in ascending order, counterbalanced for stimulus order and asked to rate the throat irritation and bitterness of every oil on a general labeled magnitude scale.

oral irritation = conditions: reported, Anke et al. 1991; cited from earlier work

| SMILES | TG Neuron Activation [1] | intracellular calcium response in trigeminal neurons (in words) [1] | other results |
| --- | --- | --- | --- |
| C/C=C(/C=O)[C@@H](CC=O)CC(=O)OCCc1cccc(O)c1 [Analog 4] | +++ |  |  |
| C/C=C(/C=O)[C@@H](CC=O)CC(=O)OCCc1ccc(O)cc1 [Oleocanthal (−), 2-(4-hydroxyphenyl)ethyl, 4-formyl-3-(2-oxoethyl)-4-hexenoic acid ester] | +++ |  | correct trials, 2AFC throat irritation (throat; 20 μg/ml in corn oil vs intensity-matched SOA): 24 out of 40; correct trials, 2AFC throat irritation (throat; 63.25 μg/ml in corn oil vs intensity-matched SOA): 39/40; correct trials, 2AFC throat irritation (throat; 200 μg/ml in corn oil vs intensity-matched SOA): 40/40; throat irritation (in words) (throat; synthetic compound in corn oil): identical to oleocanthal isolated from premium olive oil; correct identification of the more irritating sample (2AFC) (throat; three evaluators, three presentations each, corn oil, approx. twice the concentration in Falconaro olive oil, vs blank, p<0.01): 9 of 9; concentration near detection threshold levels in corn oil (throat; throat irritation, 2AFC): ~20 µg/mL |
| C/C=C(/C=O)[C@@H](CC=O)CC(=O)OCCc1ccc(F)cc1 [Analog 2] | +++ |  |  |
| C/C=C1\[C@H](CC(=O)OCCc2ccc(O)cc2)C[C@@H](O)[C@H]1O [Analog 5] | 0 | did not elicit intracellular calcium increase |  |
| C/C=C(/C=O)[C@@H](CC=O)CC(=O)OCCc1ccc(O)c(O)c1 [Analog 11, 4-DHPEA-EDA] | +++ |  | oral irritation (in words) (oral irritation): very little oral irritation |
| C/C=C(/C=O)[C@@H](CC=O)CC(=O)OC [Analog 6] | ++ |  |  |
| C/C=C(/C=O)[C@@H](CC=O)CC(=O)OCCc1ccccc1 [Analog 1] | +++ |  |  |
| C/C=C(/C=O)[C@@H](CC=O)CC(=O)OCc1ccc(O)cc1 [Analog 13] | + | small responses | number of trigeminal neurons responding, as % of the response to oleocanthal ([1]; 5 micromolar analog 13): approximately 6%; number of trigeminal neurons responding, as % of the response to oleocanthal ([1]; 10 micromolar analog 13): about 25%; number of trigeminal neurons responding, as % of the response to oleocanthal ([1]; 20 micromolar analog 13): ~45%; number of trigeminal neurons responding, as % of the response to oleocanthal ([1]; 50 micromolar analog 13): ~96%; multiple of concentration needed to reach the potency of oleocanthal ([1]; trigeminal neuron stimulation, FIG. 8): approximately 10 times |
| C/C=C(/CO)[C@@H](CCO)CC(=O)OCCc1ccc(O)cc1 [Analog 10] | 0 | did not elicit intracellular calcium increase |  |
| C/C=C(/C=O)[C@@H](CCO)CC(=O)OCCc1ccc(O)cc1 [Analog 9] | + | did not elicit intracellular calcium increase |  |
| CC[C@@H](C=O)[C@@H](CC=O)CC(=O)OCCc1ccc(O)cc1 [Analog 12] | 0 | did not elicit intracellular calcium increase |  |
| C/C=C(/C=O)[C@@H](CC=O)CC(=O)OCCCc1ccc(O)cc1 [Analog 8] | +++ |  |  |
| C/C=C(/C=O)[C@@H](CC=O)CC(=O)OCCCCC [Analog 7] | +++ |  |  |
| C/C=C(/C=O)[C@@H](CC=O)CC(=O)OCCc1ccccc1O [Analog 3] | +++ |  |  |
